Twelve compounds from ChEMBL document CHEMBL1201862, “PubChem BioAssay data set” (2004) can be followed below.

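Values below derive from 48-hour exposures of cells grown in 96-well plates, with endpoints linearly interpolated between the two concentrations bracketing the appropriate inhibition level. GI50 marks 50% less growth.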 The source made the active and inactive calls. Cut-off read from the data, not from the text of the source: active = GI50 up to about 1.1 µM and inactive = higher.

What all share (assay): growth of human tumour cells (NCI), 48 h
The subject of experiment [1] is MOLT-4.
Experiment [2] deals with CCRF-CEM.
In experiment [3] the test system is KM12.
Experiment [4] has as its system EKVX.
The subject of experiment [5] is U-251.
Experiment [6] concerns RPMI-8226.
Experiment [7] relates to OVCAR-3.
The test system of experiment [8] is HCT-116.
In experiment [9] the test system is NCI-H460.
For experiment [10], the system named is IGROV-1.
The subject of experiment [11] is HOP-92.
Experiment [12] concerns Malme-3M.
Experiment [13] has as its system SF-268.
For experiment [14], the system named is HL-60.
For experiment [15], the system named is LOX IMVI.
Experiment [16] has as its system SN12C.
The test system of experiment [17] is HCC 2998.
The subject of experiment [18] is A498.
Experiment [19] has as its system UO-31.

For `N/N=c1/nc2n(c3ncccc13)C=CNN2`, the GI50 in [1], in [2], in experiment [3], in [4], in [5] and in experiment [6] was > 100 µM (inactive) each time. For the same compound, the GI50 in experiment [7], in [8], in experiment [9], in experiment [10], in experiment [11] and in experiment [12] was > 100 µM (inactive) each time. In addition, the GI50 in [13], in experiment [14], in experiment [15], in [16] and in experiment [17] was > 100 µM (inactive) in each case.

In the case of `O=C1/C(=N\O)c2ccccc2S1(=O)=O`, the GI50 was 39.7 µM (inactive) in experiment [18]; > 100 µM (inactive) in experiment [1]; 60 µM (inactive) in experiment [2]; > 100 µM (inactive) in experiment [19]; > 100 µM (inactive) in [3]; > 100 µM (inactive) in [5]. In addition, the GI50 in experiment [6] is 64.3 µM (inactive); in experiment [8] it was > 100 µM (inactive); in [9] it was > 100 µM (inactive); in [10], > 100 µM (inactive); in experiment [11], > 100 µM (inactive); in [12], 55.3 µM (inactive). Besides, the GI50 in experiment [13] was 80.9 µM (inactive); in experiment [14], 25.2 µM (inactive); in experiment [15], > 100 µM (inactive); in experiment [16] it was > 100 µM (inactive); in experiment [17], 18.4 µM (inactive).

Take `CCCCCCC(=O)OC[n+]1ccc2c(C)c3[nH]c4ccccc4c3c(C)c2c1`: the GI50 in experiment [18] was 1.01 µM (active); in [1], 0.118 µM (active); in experiment [19] it was 3.42 µM (inactive); in experiment [4] it was 0.403 µM (active); in experiment [5] it was 0.552 µM (active); in experiment [6], 0.0785 µM (active). The GI50 in experiment [7] was 1.21 µM (inactive); in [8] it was 0.376 µM (active); in [9] it was 0.0728 µM (active); in [10], 1.47 µM (inactive); in [11] it was 3.18 µM (inactive); in experiment [12] it was 1.61 µM (inactive). Also, the GI50 in [13] was 0.61 µM (active); in experiment [14], 2.23 µM (inactive); in [15], 0.537 µM (active); in experiment [16], 0.404 µM (active); in experiment [17], 0.826 µM (active).

For the compound `O=C(/C(=C\c1ccc(Cl)cc1)c1ccccc1)c1ccccc1`, the GI50 in experiment [18] is 65 µM (inactive); in experiment [1] it was 51.3 µM (inactive); in experiment [2] it was > 100 µM (inactive); in experiment [19], 65.2 µM (inactive); in experiment [3], 22 µM (inactive); in [4], 39.3 µM (inactive). In addition, the GI50 in experiment [5] was 65.5 µM (inactive); in experiment [6], 38.2 µM (inactive); in experiment [8], 29.7 µM (inactive); in [9] it was 53.8 µM (inactive); in [10], > 100 µM (inactive); in experiment [11] it was 4.74 µM (inactive). In addition, the GI50 in experiment [12] is 57 µM (inactive); in [13] it was > 100 µM (inactive); in experiment [14], 15 µM (inactive); in experiment [15] it was 29.9 µM (inactive); in experiment [16], > 100 µM (inactive); in experiment [17], 40.5 µM (inactive).

For `NC1=NS(=O)(=O)Nc2nc(-c3ccc([N+](=O)[O-])cc3)[nH]c21`, the GI50 in experiment [1], in [2], in experiment [19], in experiment [3], in experiment [5] and in [6] was > 100 µM (inactive) in each case. Moreover, the GI50 in experiment [7], in experiment [8], in [9], in experiment [10], in experiment [11] and in experiment [12] was > 100 µM (inactive) in each case. Besides, the GI50 in experiment [13], in experiment [14], in [15], in experiment [16] and in experiment [17] was > 100 µM (inactive) each time.

Turning to `CSc1c([S+](C)[O-])[nH]c2cc(Br)cc(Br)c12` (stereo not drawn), the GI50 was 22.1 µM (inactive) in experiment [18]; 18.1 µM (inactive) in [1]; 22.2 µM (inactive) in [2]; 23.4 µM (inactive) in [19]; 24.6 µM (inactive) in experiment [3]; 14.3 µM (inactive) in [4]. The GI50 is 0.0376 µM (active) in experiment [5]; 18.8 µM (inactive) in experiment [6]; 20.6 µM (inactive) in [7]; 17.6 µM (inactive) in experiment [8]; 16.7 µM (inactive) in experiment [9]; 37.1 µM (inactive) in experiment [10]. Moreover, the GI50 in experiment [11] was 10.9 µM (inactive); in [12], 24.9 µM (inactive); in experiment [14], 21.3 µM (inactive); in experiment [15], 16.2 µM (inactive); in experiment [16], 16.7 µM (inactive); in experiment [17], 18.3 µM (inactive).

On to `CN1CN(C2OC(CO)C(O)C2O)c2nc(N)[nH]c(=O)c21` (stereo not drawn), for which the GI50 in experiment [18], in experiment [1], in experiment [19], in [3], in experiment [4] and in [5] was > 100 µM (inactive) each time. Besides, the GI50 in experiment [6], in experiment [7], in experiment [8], in [9], in experiment [10] and in [11] was > 100 µM (inactive) each time. Moreover, the GI50 in experiment [12], in [13], in experiment [14], in [16] and in [17] was > 100 µM (inactive) each time.

As for `C[C@]12CC/C(=N\O)C=C1CC[C@@H]1C2CC[C@@]2(C)C1CC[C@@H]2OC1CCCCO1` (stereo partly drawn), the GI50 in experiment [18] is > 100 µM (inactive); in experiment [1], 12.4 µM (inactive); in experiment [19] it was 21.7 µM (inactive); in experiment [3], 16.7 µM (inactive); in experiment [4] it was 17.7 µM (inactive); in [5] it was 17.9 µM (inactive). Besides, the GI50 in [6] was 15.7 µM (inactive); in experiment [7] it was 16.9 µM (inactive); in experiment [8], 20.1 µM (inactive); in [9] it was 20.4 µM (inactive); in [10], 35.6 µM (inactive); in experiment [11], 17.7 µM (inactive). Further, the GI50 in experiment [12] is 21.9 µM (inactive); in experiment [13] it was 23.3 µM (inactive); in [15], 17.7 µM (inactive); in experiment [16] it was > 10 µM (inactive); in experiment [17], 15.4 µM (inactive).

`CCOC(=O)Nc1ccc(S(=O)(=O)OC)cc1.CCOC(=O)Nc1ccc(S(=O)(=O)OC)cc1.Nc1ncnc2c1ncn2C1OC(CO)C(O)C1O` (stereo not drawn): the GI50 in experiment [18] was > 100 µM (inactive); in experiment [1] it was > 100 µM (inactive); in experiment [2], 20.6 µM (inactive); in experiment [19], > 100 µM (inactive); in [3], 99.8 µM (inactive); in experiment [4], > 100 µM (inactive). Moreover, the GI50 in experiment [6] is 21.6 µM (inactive); in experiment [7], > 100 µM (inactive); in [8], 17.5 µM (inactive); in [9], > 100 µM (inactive); in [10], > 100 µM (inactive); in experiment [11], > 100 µM (inactive). In addition, the GI50 in experiment [12] was > 100 µM (inactive); in experiment [13], > 100 µM (inactive); in experiment [14], 21.8 µM (inactive); in [15], 17.8 µM (inactive); in experiment [16], > 100 µM (inactive); in experiment [17], > 100 µM (inactive).

For `C/C(CCn1[nH]c(=O)ccc1=O)=N\O`, the GI50 in experiment [18], in experiment [1], in experiment [2], in experiment [19], in experiment [3] and in [4] was > 100 µM (inactive) each time. For the same compound, the GI50 in [6], in experiment [7], in [8], in experiment [9], in experiment [10] and in experiment [11] was > 100 µM (inactive) throughout. The GI50 in experiment [12], in experiment [13], in experiment [14], in experiment [15], in experiment [16] and in experiment [17] was > 100 µM (inactive) throughout.

For `CCOC(=O)CC1=Nc2ccccc2SC1`, the GI50 in experiment [18], in [1], in [19], in [3], in experiment [4] and in [5] was > 100 µM (inactive) each time. For the same compound, the GI50 in experiment [7], in experiment [8], in experiment [9], in [10], in [11] and in [12] was > 100 µM (inactive) throughout. In addition, the GI50 was 0.031 µM (active) in experiment [13], > 100 µM (inactive) in [15], > 100 µM (inactive) in experiment [16] and > 100 µM (inactive) in [17].

As to `CC(=O)Oc1ccc(O)c(O)c1C/C=C(\C)CC/C=C(\C)CC/C=C(\C)CCC=C(C)C` [TETRAPRENYLPHENOLSUILLIN], the GI50 in experiment [19] was 1.42 µM (inactive); in experiment [3], 0.476 µM (active); in [4], 1.55 µM (inactive); in experiment [5], 0.346 µM (active); in [8] it was 0.287 µM (active); in [9], 0.365 µM (active). Also, the GI50 is 0.309 µM (active) in [11]; 0.274 µM (active) in experiment [12]; 0.446 µM (active) in [13]; 1.39 µM (inactive) in [14]; 0.247 µM (active) in experiment [15]; 0.272 µM (active) in experiment [16]. Besides, the GI50 in experiment [17] is 0.871 µM (active).
